Data set [1] concerns P. falciparum male gametocytes. In words: P. falciparum Dual Gamete Formation Assay (PfDGFA), male readout (exflagellation). To be noted: for Selectivity Ratio M: HepG2 Tox50 versus male IC50; for IC50: PfDGFA, 24 h incubation with gametocytes before induction, exflagellation readout, read-out: Male IC50; for HitlevelM: number of replicates with >50% inhibition in the male readout. The class given is cell-based, Plasmodium falciparum NF54. A digest of the protocol:
(§1)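 First, day-14 P. falciparum NF54 gametocytes receive compound for 24 h at 37°C in 1% O2/3% CO2. Next, ookinete medium with Cy3 anti-Pfs25 triggers gametogenesis at 28°C and male exflagellation is imaged. Finally, after 24 h in the dark, Cy3-labelled females are imaged.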

Data set [2] concerns P. falciparum female gametocytes. Put plainly: P. falciparum Dual Gamete Formation Assay (PfDGFA), female readout (Pfs25-positive female gametes). The class given is cell-based, Plasmodium falciparum NF54. To be noted: for Selectivity ratio F: HepG2 Tox50 versus female IC50; for IC50: PfDGFA, 24 h incubation with gametocytes before induction, female gamete readout, read-out: Female IC50; for HitlevelF: number of replicates with >50% inhibition in the female readout. A digest of the protocol: as §1

A further data set concerns HepG2 cells. Put plainly: HepG2 cytotoxicity counter-screen. To be noted: cytotoxic activity against HepG2 cells.
Where [3] appears, read: Plasmodium falciparum, PfDGFA at 2µM, 24h preincubation with gametocytes, average of replicates, read-out: Average inhibition male (%).
The mark [4] stands for this setting: Plasmodium falciparum, PfDGFA at 2µM, 24h preincubation with gametocytes, replicate R1, read-out: % inhibition male (individual replicates) R1.
The mark [5] stands for this setting: Plasmodium falciparum, PfDGFA at 2µM, 24h preincubation with gametocytes, replicate R2, read-out: % inhibition male (individual replicates) R2.
The mark [6] stands for this setting: Plasmodium falciparum, PfDGFA at 2µM, 24h preincubation with gametocytes, replicate R3, read-out: % inhibition male (individual replicates) R3.
The mark [7] stands for this setting: Plasmodium falciparum, PfDGFA at 2µM, 24h preincubation with gametocytes, replicate R4, read-out: % inhibition male (individual replicates) R4.
[8] abbreviates: Plasmodium falciparum, PfDGFA at 2µM, 24h preincubation with gametocytes, average of replicates, read-out: Average inhibition female (%).
The mark [9] stands for this setting: Plasmodium falciparum, PfDGFA at 2µM, 24h preincubation with gametocytes, replicate R1, read-out: % inhibition female (individual replicates) R1.
[10] abbreviates: Plasmodium falciparum, PfDGFA at 2µM, 24h preincubation with gametocytes, replicate R2, read-out: % inhibition female (individual replicates) R2.
Setting [11] is: Plasmodium falciparum, PfDGFA at 2µM, 24h preincubation with gametocytes, replicate R3, read-out: % inhibition female (individual replicates) R3.
[12] abbreviates: Plasmodium falciparum, PfDGFA at 2µM, 24h preincubation with gametocytes, replicate R4, read-out: % inhibition female (individual replicates) R4.
The mark [13] stands for this setting: 2µM, 24h preincubation with gametocytes, average of replicates.
[14] abbreviates: 2µM, 24h preincubation with gametocytes, replicate R1.
The mark [15] stands for this setting: 2µM, 24h preincubation with gametocytes, replicate R3.
Where [16] appears, read: 2µM, 24h preincubation with gametocytes, replicate R4.

Each structure is given as a SMILES string. Where two headings read alike, the source gives them in different places. Where only a bound is given, the exact number is not on record here.

A word on the inhibition: it is the relative decrease from the control value, in per cent. Broadly, the IC50 is the concentration that gives 50% inhibition. Take `Fc1ccc2[nH]c(-c3ccc(-c4ccc(CNCCN5CCNCC5)cc4)cc3)nc2c1.O=C(O)C(F)(F)F` [TCMDC-132866]: in data set [1], the “Selectivity Ratio M” value is 12.07. The inhibition at 2 µM was 63.5% in data set [1] (setting [3]); 59% in data set [1] (setting [4]); 70.4% in data set [1] (setting [5]); 32.6% in data set [1] (setting [6]); 92.2% in data set [1] (setting [7]); 11.4% in data set [2] (setting [8]). The inhibition at 2 µM in data set [2] (setting [9]) came to 18%; in data set [2] (setting [10]) it was 1.6%; in data set [2] (setting [11]) it was 12.7%; in data set [2] (setting [12]), 13.5%. The 50% inhibitory concentration (IC50) is 2390 nM in data set [1] (Plasmodium falciparum) and greater than 10000 nM in data set [2] (Plasmodium falciparum). Further, the HitlevelM in data set [1] (2µM) amounted to 3. Further, in data set [2], the “Selectivity ratio F” value was 2.88. Further, in data set [2] (2µM), the HitlevelF is 0. The same compound registered a Tox50 in the data set with HepG2 cells of 28.84 µM.

As to `Cc1cccc2nc(-c3ccc(-c4cccc(CNCCN5CCNCC5)c4)cc3)[nH]c12.O=C(O)C(F)(F)F` [TCMDC-132867], the HitlevelM in data set [1] (2µM, 24h preincubation) turned out to be 3. For the same compound, in data set [1], the “Selectivity Ratio M” value is listed as 12.97. Moreover, the inhibition at 2 µM in data set [1] (Plasmodium falciparum, 2µM, 24h preincubation with gametocytes prior to induction of gametogenesis, average of replicates, read-out: Average inhibition male (%)) worked out at 46.3%; in data set [1] (Plasmodium falciparum, 2µM, 24h preincubation with gametocytes prior to induction of gametogenesis, replicate R1, read-out: % inhibition male (individual replicates) R1) it was 51.3%; in data set [1] (Plasmodium falciparum, 2µM, 24h preincubation with gametocytes prior to induction of gametogenesis, replicate R2, read-out: % inhibition male (individual replicates) R2) it was 52.2%; in data set [1] (Plasmodium falciparum, 2µM, 24h preincubation with gametocytes prior to induction of gametogenesis, replicate R3, read-out: % inhibition male (individual replicates) R3), 9.9%; in data set [1] (Plasmodium falciparum, 2µM, 24h preincubation with gametocytes prior to induction of gametogenesis, replicate R4, read-out: % inhibition male (individual replicates) R4), 71.6%; in data set [2] (Plasmodium falciparum, 2µM, 24h preincubation with gametocytes prior to induction of gametogenesis, average of replicates, read-out: Average inhibition female (%)), 20.3%. Also, the inhibition at 2 µM was determined as 12% in data set [2] (Plasmodium falciparum, 2µM, 24h preincubation with gametocytes prior to induction of gametogenesis, replicate R1, read-out: % inhibition female (individual replicates) R1); 8.9% in data set [2] (Plasmodium falciparum, 2µM, 24h preincubation with gametocytes prior to induction of gametogenesis, replicate R2, read-out: % inhibition female (individual replicates) R2); 0.36% in data set [2] (Plasmodium falciparum, 2µM, 24h preincubation with gametocytes prior to induction of gametogenesis, replicate R3, read-out: % inhibition female (individual replicates) R3); 60% in data set [2] (Plasmodium falciparum, 2µM, 24h preincubation with gametocytes prior to induction of gametogenesis, replicate R4, read-out: % inhibition female (individual replicates) R4). Besides, the IC50 in data set [1] (Plasmodium falciparum) came out at 1870 nM; in data set [2] (Plasmodium falciparum), 9110 nM. The compound also showed a HitlevelF in data set [2] (2µM, 24h preincubation) of 1. The “Selectivity ratio F” value in data set [2] came to 2.66. Moreover, the Tox50 in the data set with HepG2 cells worked out at 24.28 µM.

Regarding `Fc1ccc2[nH]c(-c3ccc(-c4ccc(CNCCN5CCNCC5)cc4)s3)nc2c1.O=C(O)C(F)(F)F` [TCMDC-132869], in data set [1], the “Selectivity Ratio M” value was determined as 12.22. Moreover, the inhibition at 2 µM in data set [1] (setting [3]) turned out to be 66.3%; in data set [1] (setting [4]) it was 55.2%; in data set [1] (setting [5]), 84.7%; in data set [1] (setting [6]) it was 32.6%; in data set [1] (setting [7]), 92.9%; in data set [2] (setting [8]), 6.1%. Besides, the inhibition at 2 µM in data set [2] (setting [9]) was 10.8%; in data set [2] (setting [10]), 10.6%; in data set [2] (setting [11]) it was -3.4%; in data set [2] (setting [12]), 6.4%. The results for the half-inhibitory concentration (IC50) in data set [1] (Plasmodium falciparum) and in data set [2] (Plasmodium falciparum) were 1970 nM and 7180 nM, respectively. This compound displayed a HitlevelM in data set [1] (2µM) of 3. Also, in data set [2], the “Selectivity ratio F” value amounted to 3.35. Moreover, in data set [2] (2µM), the HitlevelF amounted to 0. In the data set on HepG2 cells, this compound came in with a Tox50 of 24.05 µM.

Consider `FC(F)(F)c1ccc2[nH]c(-c3cccc(-c4cccc(CNCCN5CCNCC5)c4)c3)nc2c1.O=C(O)C(F)(F)F` [TCMDC-132871], for which the “Average inhibition male (%)” value in data set [1] (setting [13]) came to 95.8%. Besides, the “% inhibition male (individual replicates) R1” value in data set [1] (setting [14]) is recorded as 94.1%. Also, the “% inhibition male (individual replicates) R3” value in data set [1] (setting [15]) worked out at 90.3%. The “% inhibition male (individual replicates) R4” value in data set [1] (setting [16]) is reported as 100.2%. Further, in data set [1], the “Selectivity Ratio M” value turned out to be 6.65 and the IC50 was determined as 1520 nM. In data set [2] (setting [13]), the “Average inhibition female (%)” value was 25.3%. The “% inhibition female (individual replicates) R1” value in data set [2] (setting [14]) is 24.1%. Moreover, the “% inhibition female (individual replicates) R3” value in data set [2] (setting [15]) was found to be 40.5%. For the same compound, the “% inhibition female (individual replicates) R4” value in data set [2] (setting [16]) is reported as 19.2%. In data set [2], the “Selectivity ratio F” value came out at 1.27 and the IC50 was determined as 7940 nM. This compound yielded a Tox50 in the data set with HepG2 cells of 10.12 µM.

Values taken from PMC10584170, “Machine learning-based phenotypic imaging to characterise the targetable biology of Plasmodium falciparum male gametocytes for the development of transmission-blocking antimalarials” (PLOS Pathogens, 2023).
